# Assay results from patent US20040005601A1, “Methods for targeting quadruplex DNA” (priority 2002, published 2004).
# Legend:
# [1] = test system: CMYC; details: cited from earlier work
# [2] = test system: CMYC; assay: CMYC expression in Ramos Burkitt's lymphoma cell line (NHE III1 retained); type: cell-based
# Procedure: (§1) The importance of the NHE III1 sequence in mediating the CMYC transcriptional inhibition by TMPyP4 was assessed. Two Burkitt's lymphoma cell lines with different translocation break points within the CMYC and immunoglobulin loci were analyzed, which are referred to as the Ramos cell line and the CA46 cell line. While the Ramos cell line retained the NHE III1 during the translocation, the CA46 cell line lost this element, together with the P1 and P2 promoters (FIG. 5A). When the NHE III1 element was deleted, as in the CA46 cell line, TMPyP4 had no effect on CMYC transcriptional activation.
# [3] = test system: Pu27 chair quadruplex (CMYC NHE III1); assay: Taq polymerase stop assay at 60° C. with Pu27 insert template; type: biochemical
# Procedure: The same wild-type and mutant sequences of the Pu27 were used in a Taq polymerase stop assay, which was described in Han et al., Nucl. Acids Res. 27: 537-542 (1999). This assay is a modification of that used by Weitzmann et al., J. Biol. Chem. 271, 20958-20964 (1996), and is also described below. A reaction mixture of template DNA (77-mer with a Pu27 or mutant Pu27 insert) (50 nM), Tris.HCl (50 mM), MgCl2 (10 mM), DTT (0.5 mM), EDTA (0.1 mM), BSA (60 ng), and 5′-end-labeled 18-mer primer (˜18 nM) was heated to 90° C. for 5 min and allowed to cool to ambient temperature over 30 min. Taq Polymerase (1 μl) was added to the reaction mixture, and the reaction was maintained at a constant temperature (45° C. for the mutant Pu27 comparison; 60° C. for the porphyrin comparison) for 30 min. (For the porphyrin comparison, following cooling to ambient temperature, the requisite amount of porphyrin solution was added to the reaction mixture and left at ambient temperature for 30 min prior to the addition of polymerase.) Following the addition of 10 μl stop buffer (formamide [20 ml], 1 M NaOH [200 μl], 0.5 M EDTA [400 μl], 10 mg bromophenol blue), the DNA fragments were separated with a sequencing gel (12%) and visualized on a phosphorimager. Adenine sequencing (indicated by “A” at the top of the gel) was performed using double-stranded DNA Cycle Sequencing System from Life Technologies. The general sequence for 77-mer template strands was TCCAACTATGTATAC-INSERT-[…], and the 1 8-mer primer had the sequence TAATACGACTCACTATAG.
# To further determine whether this selectivity of TMPyP4 versus TMPyP2 for the chair conformation correlated with an effect on CMYC transcription, a Taq polymerase stop assay was performed at an elevated temperature (60° C.) to partially destabilize the arresting quadruplex structure in the presence of increasing concentrations of TMPyP2 and TMPyP4. […] This is in agreement with the differential effects of the two compounds on CMYC expression in vitro and sensitivity in vivo to tumors that overexpress CMYC (MX-1 and PC-3).
# [4] = test system: G-quadruplex structures; details: cited from earlier work
# [5] = test system: RET; assay: RET RNA expression in MiaPaCa cells (RT-PCR); type: cell-based, human; details: for downregulation of RET RNA expression: IC70 concentration
# Procedure: The effects of two test molecules also were assessed for the RET quadruplex. MiaPaCa-2 (human pancreatic tumor) were obtained from ATCC and were cultured at 37° C./5% CO2 in RPMI medium (Cellgro) with 10% fetal bovine serum (FBS), 50 U/ml penicillin G sodium, and 50 U/ml streptomycin sulfate (Gibco/BRL). Cells were treated with TMPyP4 and telomestatin (for the latter molecule, see, e.g., Shin-ya et al., J. Am. Chem. Soc. 123:1262 (2001)) when they reached ˜50% confluency. MiaPaCa cells were first washed with 5 ml of sterile phosphate-buffered saline (PBS, Fisher Scientific). The PBS was aspirated from the cells by vacuum, and replaced with 5 ml of Opti-MEM medium (Gibco-BRL) containing 6 μl Lipofectin (Invitrogen). Compounds then were added to the medium. Cells were allowed to grow at 37° C./5% CO2 for 6 hours to allow for transfection, and the medium was replaced with normal growth medium. […] The trypsin was neutralized with an equal volume of culture medium, the cells were then pelleted from this mixture by centrifugation at 500×gravity, the supernatant was aspirated, and the pellet was washed in PBS, recentrifuged, and frozen at −80° C.
# RET RNA then was extracted from the cells. Cell pellets were thawed and resuspended in 400 μl of a buffer from a commercially available kit (i.e., Buffer RA1 from the NucleoSpin RNA II Kit (Clontech)). Total cellular RNA extraction was performed according to the manufacturer's protocol. Reverse transcription was performed to convert mRNA (i.e., polyadenylated RNA) to cDNA, and RET-specific primers were used in PCR to amplify RET message.
# [6] = test system: PDGFA quadruplex; assay: Stabilization of PDGFA quadruplex structure (polymerase arrest / chemical footprinting); type: biochemical
# Description: (§2) Nucleic acids in a chair conformation often have similar but not identical structures when compared to one another and differences can manifest in loop size and nucleotide sequence, quadruplex geometry, quadruplex stability, the number of alternative chair structures for a given nucleotide sequence, and chemical reactivity, and binding of other molecules. Polymerase arrest assays and chemical footprinting studies applied to the CMYC chair quadruplex structure as described hereafter also were applied to nucleotide sequences upstream of the PDGFA and RET genes. It was determined that the NHE regions 5′ of the RET and PDGFA genes formed chair quadruplex structures that regulated transcription. FIG. 6A depicts a generalized quadruplex chair structure formed in the CMYC, PDGFA, and RET regulatory regions. In this chair structure, CMYC and RET have two stable tetrads and PDGFA has three stable tetrads. The N1 loop for CMYC is TG, for RET is GCG, and for PDGFA is CG. The N2 loop for CMYC is GAG, for RET is GCG, and for PDGFA is GCG. The N3 loop for CMYC is TG, for RET is GCG, and for PDGFA is CG (form A) or AG (form B). The different forms of the PDGFA quadruplex are depicted in FIG. 6C and the RET quadruplex structure is depicted in FIG. 6B. […]
# [7] = test system: RET quadruplex; assay: Photo-induced cleavage of the RET quadruplex; type: binding
# [8] = test system: Pu27 chair G-quadruplex; assay: Porphyrin photocleavage of Pu27 chair quadruplex; type: binding; details: exposure to light
# Description: The two quadruplex conformations of Pu27 were contacted with compounds known to bind quadruplex structures. Specifically, the two conformations were contacted with TMPyP4 and TMPyP2 (FIG. 4A) to further confirm the biologically relevant quadruplex conformation (FIGS. 4B or 4C). It has been shown that both TMPyP4 and TMPyP2 catalyze the oxidation of DNA upon exposure to light, which results in DNA strand breakage in proximity to the binding sites (Han et al., J. Am. Chem. Soc. 123: 8902-8913 (2001)).
# An identical cleavage pattern was produced by both compounds for the basket quadruplex (FIG. 4B). DNA damage was centered on the constituent guanines of the six-base bridging loop, inferring that both porphyrins are able to bind to this region, but in a nonspecific way that is neither intercalating nor end-stacking (FIG. 4A).
# [9] = test system: RET quadruplex; assay: Stabilization of RET quadruplex structure (polymerase arrest / chemical footprinting); type: biochemical
# Description: as §2
# [10] = test system: CMYC; assay: CMYC transcription in CA46 Burkitt's lymphoma cell line (NHE III1 deleted); type: cell-based; details: NHE III1 element deleted
# Procedure: as §1
# [11] = test system: CMYC; assay: CMYC expression in MiaPaCa cells; type: cell-based, human; details: 100 μM
# [12] = test system: CMYC quadruplex; assay: Stabilization of CMYC quadruplex structure (polymerase arrest / chemical footprinting); type: biochemical
# Description: as §2
SMILES,effect on CMYC transcription and protein expression [1],effect on CMYC expression [2],"stabilization of the quadruplex arrest site ([3]; up to 20 μM compound, 60° C.)",binding to G-quadruplex structures [4],downregulation of RET RNA expression ([5]; after 48 hours),downregulation of RET RNA expression ([5]; after 72 hours),stabilization of PDGFA quadruplex structure [6],binding site on RET quadruplex from photo-induced cleavage [7],photocleavage pattern of chair G-quadruplex [8],downregulation of RET ([5]; 100 μM),stabilization of RET quadruplex structure [9],"polymerase arrest at quadruplex arrest site ([3]; 0.5 μM compound, 60° C.) [%]","polymerase arrest at quadruplex arrest site ([3]; 5 μM compound, 60° C.)",conformation of Pu27 stabilized ([3]; chair versus basket),effect on CMYC transcriptional activation [10],downregulation of CMYC [11],stabilization of CMYC quadruplex structure [12]
C[n+]1ccccc1-c1c2nc(c(-c3cccc[n+]3C)c3ccc([nH]3)c(-c3cccc[n+]3C)c3ccc([nH]3)c(-c3cccc[n+]3C)c3nc1C=C3)C=C2 [TMPyP2],not,not,only modestly stabilized,bound with less affinity,–,–,–,–,–,–,–,–,–,–,–,–,–
Cc1oc2nc1-c1nc(co1)-c1nc(co1)-c1nc(co1)-c1nc(co1)-c1nc(co1)C1=NC(CS1)c1nc-2c(C)o1 (centres unmarked) [telomestatin],–,–,–,–,at least 50%,at least 50%,–,–,–,–,–,–,–,–,–,–,–
C[n+]1ccc(-c2c3nc(c(-c4cc[n+](C)cc4)c4ccc([nH]4)c(-c4cc[n+](C)cc4)c4ccc([nH]4)c(-c4cc[n+](C)cc4)c4nc2C=C4)C=C3)cc1 [TMPyP4],lowered,lowered CMYC expression,–,able to bind,–,–,stabilized,binds above and below the two stable tetrads,specific cleavage pattern,did not significantly downregulate,not the RET quadruplex,~65,virtually total arrest,stabilizes the chair conformation over the basket conformation,no effect,about 50%,stabilized
